Test results taken from patent US7368471B2, “Substituted indole acid derivatives as inhibitors of plasminogen activator inhibitor-1 (PAI-1)” (Wyeth, priority 2001, dated 2008).
Where two headings read alike, the source gives them in different places.

What was measured:
[1] = target: T1, recombinant human plasminogen activator inhibitor-1 (PAI-1) (Homo sapiens, UniProt P05121); assay: Modification of the Primary Screen for the PAI-1 Inhibition (IC50); format: biochemical; details: footnote b: determined by a modification of the Primary Screen for the PAI-1 Inhibition
T1 construct: purchased Molecular Innovations, Royal Oak, Mich
Procedure: (§1) Primary Screen for the PAI-1 Inhibition
(§2) Test compounds are dissolved in DMSO at a final concentration of 10 mM, then diluted 100× in physiologic buffer. The inhibitory assay is initiated by the addition of the test compound (1-100 μM final concentration, maximum DMSO concentration of 0.2%) in a pH 6.6 buffer containing 140 nM recombinant human plasminogen activator inhibitor-1 (PAI-1; Molecular Innovations, Royal Oak, Mich.). Following a 1 hour incubation at room temperature, 70 nM of recombinant human tissue plasminogen activator (tPA) is added, and the combination of the test compound, PAI-1 and tPA is incubated for an additional 30 minutes. Following the second incubation, Spectrozyme-tPA (American Diagnostica, Greenwich, Conn.), a chromogenic substrate for tPA, is added and absorbance read at 405 nm at 0 and 60 minutes. Relative PAI-1 inhibition is equal to the residual tPA activity in the presence of the test compound and PAI-1. Control treatments include the complete inhibition of tPA by PAI-1 at the molar ratio employed (2:1), and the absence of any effect of the test compound on tPA alone.

human PAI-1 = human PAI-1 (Homo sapiens, UniProt P05121); assay: Antibody Assay for Determining IC50 of Inhibition of PAI-1 (active PAI-1 bound to tPA-coated plate, 33B8 antibody); format: binding
Procedure: Assay for Determining IC50 of Inhibition of PAI-1
This assay is based upon the non-SDS dissociable interaction between tPA and active PAI-1. Assay plates are initially coated with human tPA (10 μg/ml). Test compounds are dissolved in DMSO at 10 mM, then diluted with physiologic buffer (pH 7.5) to a final concentration of 1-50 μM. Test compounds are incubated with human PAI-1 (50 ng/ml) for 15 minutes at room temperature. The tPA-coated plate is washed with a solution of 0.05% Tween 20 and 0.1% BSA, then the plate is blocked with a solution of 3% BSA. […] The plate is again washed, and a solution of goat anti-mouse IgG-alkaline phosphatase conjugate is added at a 1:50,000 dilution in goat serum. The plate is incubated 30 minutes at room temperature, washed, and a solution of alkaline phosphatase substrate is added. The plate is incubated 45 minutes at room temperature, and color development is determined at OD405nm. […] Results are analyzed using a logarithmic best-fit equation. The assay sensitivity is 5 ng/ml of human PAI-1 as determined from a standard curve ranging from 0-100 ng/ml.

[2] = target: T1, recombinant human plasminogen activator inhibitor-1 (PAI-1); assay: Primary Screen for the PAI-1 Inhibition (residual tPA activity, Spectrozyme-tPA chromogenic substrate); format: biochemical; details: 25 μM test compound
Procedure: as §1, §2

[3] = footnote a: determined by the Antibody Assay, read-out: IC50

Chain of human PAI-1 (P05121 24-402): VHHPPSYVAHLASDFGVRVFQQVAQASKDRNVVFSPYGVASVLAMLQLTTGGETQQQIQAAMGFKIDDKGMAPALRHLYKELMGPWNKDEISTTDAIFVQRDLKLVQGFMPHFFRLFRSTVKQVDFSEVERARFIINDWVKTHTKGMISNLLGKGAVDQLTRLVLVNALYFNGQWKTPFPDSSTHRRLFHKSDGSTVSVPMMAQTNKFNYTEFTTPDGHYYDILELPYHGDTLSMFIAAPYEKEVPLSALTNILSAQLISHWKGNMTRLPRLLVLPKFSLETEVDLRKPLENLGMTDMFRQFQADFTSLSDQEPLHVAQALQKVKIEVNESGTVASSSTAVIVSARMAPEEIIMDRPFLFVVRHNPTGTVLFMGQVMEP
T1 sequence (P05121 24-402): as above

Row | SMILES | IC50 [1] [µM] | melting point | IC50 (human PAI-1) [µM] | IC50 (human PAI-1; [3]) [µM] | inhibition at 25 µM [2] [%]
1 | Cn1cc(C(=O)C(=O)O)c2ccc(-c3ccc(C(F)(F)F)cc3)cc21 [Example 2, {1-Methyl-6-[4-(trifluoromethyl)phenyl]-1H-indol-3-yl}(oxo)acetic acid] | 32 | 256 to 257 °C (dec.) |  |  | 
2 | O=C(O)C(=O)c1cn(Cc2ccccc2)c2cc(-c3ccc(OC(F)(F)F)cc3)ccc12 [Example 5, {1-Benzyl-6-[4-(trifluoromethoxy)phenyl]-1H-indol-3-yl}(oxo)acetic acid] |  |  | 17.3 |  | 
3 | CC(C)(C)c1ccc(Cn2cc(C(=O)C(=O)O)c3ccc(-c4ccc(OC(F)(F)F)cc4)cc32)cc1 [Example 8, {1-[4-(tert-Butyl)benzyl]-6-[4-(trifluoromethoxy)phenyl]-1H-indol-3-yl}(oxo)acetic acid] | 11.2 |  |  |  | 
4 | O=C(O)C(=O)c1cn(Cc2ccccc2)c2ccc(-c3ccc(F)c(Cl)c3)cc12 [Example 15, [1-Benzyl-5-(3-chloro-4-fluorophenyl)-1H-indol-3-yl](oxo)acetic acid] | 6.5 | 145 to 146 °C (dec.) |  |  | 
5 | O=C(O)C(=O)c1cn(Cc2ccccc2)c2ccc(-c3cc(C(F)(F)F)cc(C(F)(F)F)c3)cc12 [Example 16, {1-Benzyl-5-[3,5-bis(trifluoromethyl)phenyl]-1H-indol-3-yl}(oxo)acetic acid] |  | 206 to 207 °C |  | 11.5 | 
6 | O=C(O)C(=O)c1cn(Cc2ccccc2)c2c(-c3ccc(OC(F)(F)F)cc3)cccc12 [Example 17, {1-Benzyl-7-[4-(trifluoromethoxy)phenyl]-1H-indol-3-yl}(oxo)acetic acid] |  |  |  | 10 | 
7 | O=C(O)C(=O)c1cn(Cc2ccccc2)c2c(-c3ccc(F)c(Cl)c3)cccc12 [Example 18, [1-Benzyl-7-(3-chloro-4-fluorophenyl)-1H-indol-3-yl](oxo)acetic acid] | 19.4 | 153 to 156 °C |  |  | 
8 | CC(C)(C)c1ccc(Cn2cc(C(=O)C(=O)O)c3cc(-c4ccc(OC(F)(F)F)cc4)ccc32)cc1 [Example 19, {1-(4-tert-Butylbenzyl)-5-[4-(trifluoromethoxy)phenyl]-1H-indol-3-yl}(oxo)acetic acid] | 15.8 |  |  |  | 
9 | O=C(O)C(=O)c1cn(Cc2ccccc2)c2cc(-c3cccc(Cl)c3)ccc12 [Example 21, [1-Benzyl-6-(3-chlorophenyl)-1H-indol-3-yl](oxo)acetic acid] |  | 186 to 188 °C |  | 19.9 | 
10 | O=C(O)C(=O)c1cn(Cc2ccccc2)c2ccc(-c3cccc(OC(F)(F)F)c3)cc12 [Example 22, {1-Benzyl-5-[3-(trifluoromethoxy)phenyl]-1H-indol-3-yl}(oxo)acetic acid] |  |  |  | 9.7 | 
11 | Cc1ccc(Cn2cc(C(=O)C(=O)O)c3cc(-c4ccccc4)ccc32)cc1 [Example 25, [1-(4-Methylbenzyl)-5-phenyl-1H-indol-3-yl](oxo)acetic acid] | 14 | 195 to 196 °C |  |  | 
12 | Cc1ccc(Cn2cc(C(=O)C(=O)O)c3cc(-c4ccc(OC(F)(F)F)cc4)ccc32)cc1 [Example 26, {1-(4-Methylbenzyl)-5-[4-(trifluoromethoxy)phenyl]-1H-indol-3-yl}(oxo)acetic acid] | 6.8 | 192 to 193 °C |  |  | 
13 | O=C(O)C(=O)c1cn(Cc2ccc(F)cc2)c2ccc(-c3ccc(OC(F)(F)F)cc3)cc12 [Example 27, {1-(4-Fluorobenzyl)-5-[4-(trifluoromethoxy)phenyl]-1H-indol-3-yl}(oxo)acetic acid] | 5.3 | 158 to 159 °C |  |  | 
14 | O=C(O)C(=O)c1cn(Cc2ccc(F)cc2)c2ccc(-c3ccccc3)cc12 [Example 28, [1-(4-Fluorobenzyl)-5-phenyl-1H-indol-3-yl](oxo)acetic acid] |  | 165 to 166 °C |  | 35 | 
15 | CCCCn1cc(C(=O)C(=O)O)c2cc(-c3ccc(Cl)cc3)ccc21 [Example 29, [1-Butyl-5-(4-chlorophenyl)-1H-indol-3-yl](oxo)acetic acid] |  | 136 to 137 °C | 12.5 |  | 
16 | CCCCn1cc(C(=O)C(=O)O)c2cc(-c3cccc(Cl)c3)ccc21 [Example 30, [1-Butyl-5-(3-chlorophenyl)-1H-indol-3-yl](oxo)acetic acid] | 16 | 108 to 109 °C |  |  | 
17 | CCCCn1cc(C(=O)C(=O)O)c2cc(-c3ccc(C(F)(F)F)cc3)ccc21 [Example 33, {1-Butyl-5-[4-(trifluoromethyl)phenyl]-1H-indol-3-yl}(oxo)acetic acid] |  | 149 °C |  | 10.5 | 
18 | Cc1cccc(-c2ccc3c(c2)c(C(=O)C(=O)O)cn3Cc2ccc(C(C)(C)C)cc2)c1 [Example 34, [1-(4-tert-Butylbenzyl)-5-(3-methylphenyl)-1H-indol-3-yl](oxo)acetic acid] | 6.2 |  |  |  | 
19 | COc1cccc(-c2ccc3c(c2)c(C(=O)C(=O)O)cn3Cc2ccc(C(C)(C)C)cc2)c1 [Example 35, [1-(4-tert-Butylbenzyl)-5-(3-methoxyphenyl)-1H-indol-3-yl](oxo)acetic acid] | 14.6 |  |  |  | 
20 | CC(C)(C)c1ccc(Cn2cc(C(=O)C(=O)O)c3cc(-c4ccc(C(C)(C)C)cc4)ccc32)cc1 [Example 36, [1-(4-tert-Butylbenzyl)-5-(4-tert-butylphenyl)-1H-indol-3-yl](oxo)acetic acid] |  | 111 to 112 °C |  | 10 | 
21 | CC(C)(C)c1ccc(Cn2cc(C(=O)C(=O)O)c3cc(-c4cccc(Cl)c4)ccc32)cc1 [Example 37, [1-(4-tert-Butylbenzyl)-5-(3-chlorophenyl)-1H-indol-3-yl](oxo)acetic acid] |  | 138 to 139 °C |  | 16.4 | 
22 | Cc1ccccc1-c1ccc2c(c1)c(C(=O)C(=O)O)cn2Cc1ccc(C(C)(C)C)cc1 [Example 39, [1-(4-tert-Butylbenzyl)-5-(2-methylphenyl)-1H-indol-3-yl](oxo)acetic acid] |  | 97 to 98 °C |  | 21.6 | 
23 | CCC(CC)Cn1cc(C(=O)C(=O)O)c2cc(-c3ccc(OC(F)(F)F)cc3)ccc21 [Example 40, {1-(2-Ethylbutyl)-5-[4-(trifluoromethoxy)phenyl]-1H-indol-3-yl}(oxo)acetic acid] | 8.5 | 98 to 99 °C |  |  | 
24 | Cc1ccc(Cn2c(CO)c(C(=O)C(=O)[O-])c3cc(-c4ccc(OC(F)(F)F)cc4)ccc32)cc1.[K+] [Example 42, {2-(Hydroxymethyl)-1-(4-methylbenzyl)-5-[4-(trifluoromethoxy)phenyl]-1H-indol-3-yl}(oxo)acetic acid, potassium salt] |  | 248 to 249.5 °C |  | 45.7 | 
25 | CC(=O)OCc1c(C(=O)C(=O)O)c2cc(-c3ccc(OC(F)(F)F)cc3)ccc2n1Cc1ccccc1 [Example 43, {2-[(Acetyloxy)methyl]-1-benzyl-5-[4-(trifluoromethoxy)phenyl]-1H-indol-3-yl}(oxo)acetic acid] |  | 85 to 86 °C |  | 17.2 | 
26 | O=C([O-])C(=O)c1c(CO)n(Cc2ccccc2)c2ccc(-c3ccc(OC(F)(F)F)cc3)cc12.[K+] [Example 44, {1-Benzyl-2-(hydroxymethyl)-5-[4-(trifluoromethoxy)phenyl]-1H-indol-3-yl}(oxo)acetic acid, potassium salt] |  | 280 to 282 °C |  | 26.3 | 
27 | O=C(O)C(=O)c1cn(CC2CCCCC2)c2ccc(-c3cccc(Cl)c3)cc12 [Example 48, [5-(3-chlorophenyl)-1-(cyclohexylmethyl)-1H-indol-3-yl](oxo)acetic acid] |  |  |  | 13.3 | 
28 | O=C(O)c1cn(Cc2ccccc2)c2ccc(-c3ccc(F)c(Cl)c3)cc12 [Example 62, 1-Benzyl-5-(3-chloro-4-fluoro-phenyl)-1H-indole-3-carboxylic acid] |  | 189 to 194 °C | 11.2 |  | 53
